Earlier results in patent publication US20090005322A1, “Physiologically- Active Composition Based on Collagen” (priority 2004, published 2009).

Test system: human peripheral polymorphonuclear leucocytes

C[C@@H]1O[C@@H](O[C@@H]2[C@@H](O)[C@H](OCCc3ccc(O)c(O)c3)O[C@H](CO)[C@H]2OC(=O)/C=C/c2ccc(O)c(O)c2)[C@H](O)[C@H](O)[C@H]1O [Acteoside, acteoside]
formation of eicosatetraenoic acid derivatives (5-HET): inhibits
formation of leucotriene B4: inhibits
